Results reported in US12180187B2, “1-phenyl-5-azinylpyrazolyl-3-oxyalkyl acids and their use for controlling unwanted plant growth” (BAYER AKTIENGESELLSCHAFT, priority 2019, dated 2024).

What was measured:
ECHCG = assay: Pre-emergence action against ECHCG, 1280 g/ha; assay type: in vivo, Echinochloa crus-galli; settings: visual scoring after about 3 weeks vs untreated controls, 100% = plants have died, 0% = like control plants
Outline: (§1)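 Visual percent-effect ratings (0% = like control, 100% = plants dead) were taken about 3 weeks after pre-emergence soil-surface application of WP/EC aqueous formulations with 0.5% additive, 600 L water/ha. Seeds were sown in sandy loam and grown in the greenhouse.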

POAAN [1] = assay: Pre-emergence action against POAAN, 1280 g/ha; assay type: in vivo, Poa annua; settings: visual scoring after about 3 weeks vs untreated controls, 100% = plants have died, 0% = like control plants
Outline: as §1

SETVI [2] = assay: Pre-emergence action against SETVI, 1280 g/ha; assay type: in vivo, Setaria viridis; settings: visual scoring after about 3 weeks vs untreated controls, 100% = plants have died, 0% = like control plants
Outline: as §1

AMARE [3] = assay: Pre-emergence action against AMARE, 1280 g/ha; assay type: in vivo, Amaranthus retroflexus; settings: scored visually after about 3 weeks vs untreated controls (100% = plants have died)
Outline: as §1

MATIN = assay: Pre-emergence action against MATIN, 1280 g/ha; assay type: in vivo, Tripleurospermum inodorum (Matricaria inodora); settings: scored visually after about 3 weeks vs untreated controls (100% = plants have died)
Outline: as §1

STEME = assay: Pre-emergence action against STEME, 1280 g/ha; assay type: in vivo, Stellaria media; settings: scored visually after about 3 weeks vs untreated controls (100% = plants have died)
Outline: as §1

ALOMY [4] = assay: Pre-emergence action at 320 g/ha against ALOMY; assay type: in vivo, Alopecurus myosuroides; settings: scored visually after about 3 weeks vs untreated controls (100% = plants have died)
Outline: (§2)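 Visual % scoring at about 3 weeks post-treatment against untreated pots (0% = like control, 100% = dead), greenhouse-grown. Compounds applied at 320 g/ha as aqueous WP/EC suspension or emulsion plus 0.5% additive, 600 l/ha water, onto covering soil of freshly sown pots before emergence.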

AVEFA = assay: Pre-emergence action at 320 g/ha against AVEFA; assay type: in vivo; settings: visual scoring after about 3 weeks vs untreated controls
Outline: as §2

DIGSA = assay: Pre-emergence action at 320 g/ha against DIGSA; assay type: in vivo, Digitaria sanguinalis; settings: visual scoring after about 3 weeks vs untreated controls
Outline: as §2

SETVI [5] = assay: Pre-emergence action at 320 g/ha against SETVI; assay type: in vivo, Setaria viridis; settings: visual scoring after about 3 weeks vs untreated controls
Outline: as §2

AMARE [6] = assay: Pre-emergence action at 320 g/ha against AMARE; assay type: in vivo, Amaranthus retroflexus; settings: visual scoring after about 3 weeks vs untreated controls
Outline: as §2

POLCO = assay: Pre-emergence action at 320 g/ha against POLCO; assay type: in vivo, Fallopia convolvulus (Polygonum convolvulus); settings: visual scoring after about 3 weeks vs untreated controls
Outline: as §2

VERPE = assay: Pre-emergence action at 320 g/ha against VERPE; assay type: in vivo, Veronica persica; settings: visual scoring after about 3 weeks vs untreated controls
Outline: as §2

ALOMY [7] = assay: Post-emergence action against ALOMY, 1.28 kg/ha; assay type: in vivo, Alopecurus myosuroides; settings: dosage 1280 g/ha, visual rating about 3 weeks after treatment vs untreated controls
Outline: (§3)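 Herbicidal action is estimated by eye after about three weeks under optimum greenhouse conditions, on a 0–100% scale against untreated plants. Compounds are applied post-emergence to one-leaf-stage weeds as aqueous WP or EC preparations containing 0.5% additive, sprayed at 600 L/ha.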

POAAN [8] = assay: Post-emergence action against POAAN, 1.28 kg/ha; assay type: in vivo, Poa annua; settings: dosage 1280 g/ha, visual rating about 3 weeks after treatment vs untreated controls
Outline: as §3

SMILES | Pre-emergence action against ECHCG (ECHCG) [%] | Pre-emergence action against POAAN (POAAN [1]) [%] | Pre-emergence action against SETVI (SETVI [2]) [%] | Pre-emergence action against AMARE (AMARE [3]) [%] | Pre-emergence action against MATIN (MATIN) [%] | Pre-emergence action against STEME (STEME) [%] | Pre-emergence action at 320 g/ha against ALOMY in % (ALOMY [4]) [%] | Pre-emergence action against AVEFA in % (AVEFA) [%] | Pre-emergence action against DIGSA in % (DIGSA) [%] | Pre-emergence action against SETVI in % (SETVI [5]) [%] | Pre-emergence action against AMARE in % (AMARE [6]) [%] | Pre-emergence action against POLCO in % (POLCO) [%] | Pre-emergence action against VERPE in % (VERPE) [%] | Post-emergence action against ALOMY (ALOMY [7]) [%] | Post-emergence action against POAAN (POAAN [8]) [%]
COCCOC(=O)COc1nn(-c2ccccc2F)c(-c2ccc(F)nc2)c1Br [VII-052] | 100 | 100 | 100 | 100 | 100 | 100 | 100 | 90 | 100 | 100 | 100 | 100 | 90 | 100 | 100
COC(=O)[C@@H](C)Oc1nn(-c2cc(F)ccc2F)c(-c2ccc(F)nc2)c1Br [VII-062] | 100 | 100 | 100 | 100 | 100 | 100 | 100 | 100 | 100 | 100 | 100 | 100 | 100 | 100 | 100
CCOC(=O)C(C)Oc1nn(-c2ccccc2F)c(-c2ccc(F)nc2)c1C(F)(F)F (stereo not drawn) [VII-066] | 100 | 100 | 100 | 100 | 90 | 100 | 100 | 90 | 100 | 80 | 100 | 90 | 100 | 100 | 100
COC(=O)COc1nn(-c2cc(F)ccc2F)c(-c2ccc(F)nc2)c1Br [VII-089] | 100 | 100 | 100 | 100 | 100 | 90 | 100 | 90 | 100 | 100 | 100 | 100 | 100 | 100 | 100
O=C(COc1nn(-c2ccccc2F)c(-c2ccc(F)nc2)c1Br)OCC1CCOC1 (stereo not drawn) [VII-091] | 100 | 100 | 100 | 100 | 100 | 100 | 100 | 90 | 100 | 100 | 100 | 100 | 100 | 100 | 100
O=C(COc1nn(-c2ccccc2F)c(-c2ccc(F)nc2)c1Br)OCC1OCCO1 [VII-103] | 100 | 100 | 100 | 100 | 100 | 100 | 100 | 90 | 100 | 100 | 100 | 100 | 100 | 100 | 100
COC(=O)[C@H](C)Oc1nn(-c2cc(F)ccc2F)c(-c2ccc(F)nc2)c1Br [VII-107] | 90 | 100 | 100 | 100 | 90 | 100 | 80 | 90 | 100 | 100 | 100 | 100 | 80 | 100 | 100
COC(=O)CCOC(=O)COc1nn(-c2ccccc2F)c(-c2ccc(F)nc2)c1Br [VII-111] | 100 | 100 | 100 | 100 | 100 | 100 | 100 | 90 | 100 | 100 | 100 | 90 | 100 | 100 | 100
COC(=O)[C@@H](C)Oc1nn(-c2cc(F)ccc2F)c(-c2cncc(F)c2)c1Br [VII-132] | 100 | 100 | 100 | 100 | 100 | 100 | 100 | 100 | 100 | 100 | 100 | 100 | 100 | 100 | 100
COC(=O)[C@@H](C)Oc1nn(-c2cc(F)ccc2F)c(-c2cncc(F)c2)c1C#N [VII-147] | 100 | 100 | 100 | 100 | 100 | 100 | 100 | 100 | 100 | 100 | 100 | 100 | 100 | 100 | 100
